This note sets out measurements from patent US20250100996A1, “HETEROCYCLOALKYL AND HETEROARYL COMPOUNDS AND PHARMACEUTICAL COMPOSITIONS THAT MODULATE IKZF2” (Plexium, Inc., priority 2021, published 2025).

Each structure is given as a SMILES string.

What all share (type): cell-based
In test [1] the target is T1, IKZF3 (Aiolos) (Homo sapiens, UniProt Q9UKT9).
T1 construct: Leu-Asp junction (codons ctcgac before the linker); mScarlet (behind P2A) (C, cleaved yes); expressed in transfected cells
Description: IKZF3 reporter degradation assay (HEK 293T IKZF3-mNeonGreen reporter cell line). The settings on record: HEK 293T IKZF3-mNeonGreen reporter, 24 hours incubation. Summed up: (§1)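 Stable clonal HEK 293T lines express each IKZF-mNeonGreen-P2A-mScarlet fusion. Cells were seeded, attached overnight, then given compound (≤0.5% DMSO, quadruplicate) for 24 h at 37° C. Imaged for percent mNeonGreen-positive cells, segmented on mScarlet. DC50 from four-parameter logistic fit.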

Test [2] deals with T2, IKZF2 (Helios) (Homo sapiens, UniProt Q9UKS7).
T2 construct: Leu-Asp junction (codons ctcgac before the linker); mScarlet (behind P2A) (C, cleaved yes); expressed in transfected cells
As to the kind of experiment: IKZF2 reporter degradation assay (HEK 293T IKZF2-mNeonGreen reporter cell line). The settings on record: HEK 293T IKZF2-mNeonGreen reporter, 24 hours incubation. The method in brief: as §1

For test [3], the target named is T3, IKZF2 (Helios) (Homo sapiens, UniProt Q96SW2+Q9UKS7).
T3 construct: Leu-Asp junction (codons ctcgac before the linker); mScarlet (behind P2A) (C, cleaved yes); expressed in transfected cells
The description is as above. Conditions: HEK-293T, 24 h, @ 1 μM, HEK 293T IKZF2-mNeonGreen reporter, 24 hours incubation. The method in brief: as §1

The target of test [4] is T4, GSPT1 (Homo sapiens, UniProt P15170).
T4 construct: HiBiT-tagged cells were generated using CRISPR-Cas12a technology; endogenous in cells; host or cells: HEK293 (endogenous GSPT1 locus edited with HiBiT knock-in)
As to the kind of experiment: GSPT1 reporter degradation assay (HEK293 hGSPT1 HiBiT-tagged cells). The settings on record: 24 hour incubation. As to the method:
HEK293_hGSPTl_HiBiT-tagged cells were generated using CRISPR-Cas12a technology. Briefly, ˜400,000 HEK293 cells were transiently co-transfected with precomplexed ribonuclear proteins (RNPs) consisting of 80 pmol of crRNA (IDT), 62 pmol of Cas12a protein (IDT), 3 μg of ssODN donor (IDT; Alt® modifications), 78 pmol of electroporation enhancer (IDT), and 200 ng of pMaxGFP (Lonza). The transfection was performed via nucleofection (Lonza, 4D-Nucleofector X-unit) using solution P3 and program CM-130 in a ([…]) cuvette. Five days post-nucleofection, cells were single-cell-sorted for GFP+(transfected) cells by FACs in 96-well plates and clonally selected. Clones were screened and verified for the desired modification via targeted deep sequencing using gene-specific primers with partial Illumina adapter overhangs as previously described. In brief, clonal cell pellets were harvested, lysed, and used to generate gene-specific amplicons with partial Illumina adapters in PCR #1. Amplicons were indexed in PCR #2 and pooled with other targeted amplicons for other loci to create sequence diversity. Additionally, 10% PhiX sequencing control V3 (Illumina) was added to the pooled amplicon library prior to running the sample on a Miseq Sequencer System (Illumina) to generate paired 2×250 bp reads. Samples were demultiplexed using the index sequences, fastq files were generated, and NGS analysis was performed using CRIS.py. Final clones were authenticated using the PowerPlex fusion system (Promega) and tested negative for mycoplasma by the MycoAlertTMPlus mycoplasma detection kit (Lonza).
Editing construct sequences and screening primers are outlined below (sequence from 5′ to 3′). hGSPT1Cas12acrRNA, CAGE635.GSPT1.g1: […]; CAGE635.g1.anti.ssODN: ttcctcacagtattgtgcagggtcatcaagaaaatgctta[…] CAGCCGCTCACgtcCttctctggaaccagtttcagaacttttccaattgcaatggtcttacctagaaatgaaattttaa (HiBiT tag and silent blocking modifications to prevent Cas12a recutting after integration are in upper case); CAGE635.hGSPT1.DS.F: […]; CAGE635.hGSPT1.DS.R: GTGAA GTAGGCTTCTGCAGTC.
The GSPT1 degradation assay was carried out by harvesting the HEK 293T reporter cell lines and resuspending the cells in media formulated for reduced background fluorescence (FluoroBrite; Thermo Fisher). The respective cell lines were seeded at a density of 8,000 cells/well into white-opaque 384-well optical grade assay tissue culture plates (Greiner 781080-20). The cells were incubated overnight at 37° C. to allow for attachment to the assay plate. Dilutions of the compounds were prepared in DMSO from 10 mM compound stocks. Test compounds were added in a 10-point dilution series (typically 10 μM to 100 pM) using a TECAN D300e Digital Dispenser with an upper limit of 0.5% final DMSO. Plates were centrifuged at 320×g for 2 minutes at room temperature, and subsequently incubated at 37° C.
After 24 hour incubation with the compounds, the plates were allowed to cool to room temperature for 10 minutes. 30 μL of HiBiT lytic buffer+1:50 HiBiT substrate Solution were added to each well. Plates were centrifuged at 320×g for 2 minutes at room temperature and then incubated with shaking at room temperature for 10 minutes covered with foil. Plates were read on a CLARIOstar microplate reader (BMG LabTech), measuring at 450 nm (donor emission) and 610 nm or 630 nm (acceptor emission). The DC50 values were determined by regression to best fit four-parameter logistic curves using GraphPad Prism.
Background: With HiBiT, luminescence reflects the tagged protein that the partner subunit can reach.

T1 sequence (Q96SW2 whole entry partner): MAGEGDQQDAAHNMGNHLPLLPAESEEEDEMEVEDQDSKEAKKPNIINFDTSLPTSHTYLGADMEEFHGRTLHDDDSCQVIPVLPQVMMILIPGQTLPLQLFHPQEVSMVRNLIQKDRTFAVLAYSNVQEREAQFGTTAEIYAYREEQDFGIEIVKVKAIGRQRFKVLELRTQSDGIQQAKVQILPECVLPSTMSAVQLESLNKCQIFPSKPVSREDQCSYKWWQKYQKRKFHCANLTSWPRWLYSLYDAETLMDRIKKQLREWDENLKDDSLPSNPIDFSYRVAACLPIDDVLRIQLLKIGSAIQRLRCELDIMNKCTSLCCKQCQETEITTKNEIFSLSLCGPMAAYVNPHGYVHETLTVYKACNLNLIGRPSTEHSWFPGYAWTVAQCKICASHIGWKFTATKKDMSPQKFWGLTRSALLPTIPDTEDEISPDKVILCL
T1 sequence (Q16531 whole entry partner): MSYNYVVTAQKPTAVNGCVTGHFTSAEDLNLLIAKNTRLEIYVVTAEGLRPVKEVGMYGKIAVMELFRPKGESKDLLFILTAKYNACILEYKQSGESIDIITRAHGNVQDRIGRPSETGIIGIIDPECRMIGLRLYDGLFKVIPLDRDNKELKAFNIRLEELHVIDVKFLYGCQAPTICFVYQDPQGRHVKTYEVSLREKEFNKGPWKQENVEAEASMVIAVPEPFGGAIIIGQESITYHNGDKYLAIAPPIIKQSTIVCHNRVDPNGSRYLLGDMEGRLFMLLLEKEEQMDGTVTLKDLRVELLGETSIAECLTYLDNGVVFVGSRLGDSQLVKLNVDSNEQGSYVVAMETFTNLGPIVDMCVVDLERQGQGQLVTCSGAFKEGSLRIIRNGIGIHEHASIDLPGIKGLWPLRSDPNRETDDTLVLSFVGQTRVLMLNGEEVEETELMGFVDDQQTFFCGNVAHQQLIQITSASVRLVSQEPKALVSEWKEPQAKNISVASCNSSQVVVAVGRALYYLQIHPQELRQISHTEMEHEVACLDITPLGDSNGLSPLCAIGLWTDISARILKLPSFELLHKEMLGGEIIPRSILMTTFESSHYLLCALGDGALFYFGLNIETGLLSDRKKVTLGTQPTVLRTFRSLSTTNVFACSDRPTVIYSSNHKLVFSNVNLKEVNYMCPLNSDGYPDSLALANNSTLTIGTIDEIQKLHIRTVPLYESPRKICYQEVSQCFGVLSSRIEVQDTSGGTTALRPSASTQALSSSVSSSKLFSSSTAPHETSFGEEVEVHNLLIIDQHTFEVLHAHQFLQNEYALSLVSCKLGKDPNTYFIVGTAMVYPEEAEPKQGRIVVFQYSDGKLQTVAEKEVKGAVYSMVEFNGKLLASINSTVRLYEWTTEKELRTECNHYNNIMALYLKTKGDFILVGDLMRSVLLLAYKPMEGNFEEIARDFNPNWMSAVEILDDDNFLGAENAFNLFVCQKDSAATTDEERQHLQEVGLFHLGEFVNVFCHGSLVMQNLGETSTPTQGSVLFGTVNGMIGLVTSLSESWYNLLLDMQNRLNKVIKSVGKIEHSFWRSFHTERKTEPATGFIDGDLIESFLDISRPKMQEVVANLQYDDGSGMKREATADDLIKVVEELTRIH
T1 sequence (Q9UKT9 whole entry): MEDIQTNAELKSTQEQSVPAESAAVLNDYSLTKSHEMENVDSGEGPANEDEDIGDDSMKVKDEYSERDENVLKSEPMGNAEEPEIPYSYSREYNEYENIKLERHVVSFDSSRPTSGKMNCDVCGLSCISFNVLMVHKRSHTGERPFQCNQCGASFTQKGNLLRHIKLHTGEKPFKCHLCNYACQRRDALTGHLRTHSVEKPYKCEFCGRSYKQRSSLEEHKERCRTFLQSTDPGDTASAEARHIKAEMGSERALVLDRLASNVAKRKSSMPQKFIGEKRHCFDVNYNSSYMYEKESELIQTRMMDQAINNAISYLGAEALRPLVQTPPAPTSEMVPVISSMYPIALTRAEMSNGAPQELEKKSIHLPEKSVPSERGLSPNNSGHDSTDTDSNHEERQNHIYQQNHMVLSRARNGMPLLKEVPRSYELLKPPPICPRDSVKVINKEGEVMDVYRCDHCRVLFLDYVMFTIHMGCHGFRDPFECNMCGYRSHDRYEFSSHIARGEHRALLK
T4 sequence (Q96SW2 whole entry partner): as the sequence (Q96SW2 whole entry partner) above
T4 sequence (Q16531 whole entry partner): as the sequence (Q16531 whole entry partner) above
T4 sequence (P15170 whole entry): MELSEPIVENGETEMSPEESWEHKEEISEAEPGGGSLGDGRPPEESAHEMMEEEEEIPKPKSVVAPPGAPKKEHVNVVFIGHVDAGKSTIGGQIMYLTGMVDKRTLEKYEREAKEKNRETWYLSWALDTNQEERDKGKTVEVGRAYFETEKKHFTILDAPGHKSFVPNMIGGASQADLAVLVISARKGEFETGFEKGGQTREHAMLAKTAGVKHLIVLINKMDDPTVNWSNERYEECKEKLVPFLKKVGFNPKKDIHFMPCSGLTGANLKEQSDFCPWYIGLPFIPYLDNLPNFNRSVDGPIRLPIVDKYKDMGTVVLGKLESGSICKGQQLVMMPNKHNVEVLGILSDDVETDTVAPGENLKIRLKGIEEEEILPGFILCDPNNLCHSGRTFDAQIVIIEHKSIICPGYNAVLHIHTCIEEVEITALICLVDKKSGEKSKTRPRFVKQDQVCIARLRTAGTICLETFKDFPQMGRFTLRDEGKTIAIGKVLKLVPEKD
T3 sequence (Q9UKS7 whole entry): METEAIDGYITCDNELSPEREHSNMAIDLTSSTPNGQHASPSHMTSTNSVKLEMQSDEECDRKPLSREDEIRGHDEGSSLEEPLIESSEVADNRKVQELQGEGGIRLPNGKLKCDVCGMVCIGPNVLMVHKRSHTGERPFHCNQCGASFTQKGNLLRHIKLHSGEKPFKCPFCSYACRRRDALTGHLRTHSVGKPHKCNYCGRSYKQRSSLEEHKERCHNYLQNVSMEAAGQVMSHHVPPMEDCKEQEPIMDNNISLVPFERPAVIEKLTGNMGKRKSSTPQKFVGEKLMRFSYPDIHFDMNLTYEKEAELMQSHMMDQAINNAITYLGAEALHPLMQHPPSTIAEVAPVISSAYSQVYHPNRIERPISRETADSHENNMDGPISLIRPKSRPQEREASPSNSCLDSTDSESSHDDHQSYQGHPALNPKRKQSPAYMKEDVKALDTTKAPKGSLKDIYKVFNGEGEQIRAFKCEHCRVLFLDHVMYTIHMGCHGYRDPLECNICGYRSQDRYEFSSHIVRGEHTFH
T3 sequence (Q96SW2 whole entry): as the sequence (Q96SW2 whole entry partner) above
T3 sequence (Q16531 whole entry partner): as the sequence (Q16531 whole entry partner) above
T2 sequence (Q9UKS7 whole entry): as the sequence (Q9UKS7 whole entry) above
T2 sequence (Q96SW2 whole entry, further chain): as the sequence (Q96SW2 whole entry partner) above
T2 sequence (Q16531 whole entry partner): as the sequence (Q16531 whole entry partner) above

Usually DC50 stands for the concentration giving 50% degradation. Low values mean a more potent degrader, high ones a less potent degrader. A word on the inhibition: it is the relative decrease from the control value, in per cent. A lower inhibition goes with a response near the control. Turning to `O=C1CCC(N2Cc3cc(O[C@H]4CCCC[C@@H]4N4CC(C5CCN(S(=O)(=O)C6CCC6)CC5)C4)ccc3C2=O)C(=O)N1` (stereo partly drawn) [Compound 57-A, 3-(5-(((1S,2S)-2-(3-(1-(cyclobutylsulfonyl)piperidin-4-yl)azetidin-1-yl)cyclohexyl)oxy)-1-oxoisoindolin-2-yl)piperidine-2,6-dione], the DC50 in test [1] is over 30 µM; in test [2] it was 0.002 µM; in test [4] it was over 30 µM. The same compound came in with an inhibition at 1 µM in test [3] of 85.4%.
